# Laboratory results from PubChem BioAssay (NCI).
#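 A five-concentration, 48-hour dose response in 96-well plates underlies each endpoint, interpolated linearly between surrounding concentrations. The concentration for full growth arrest is given as TGI.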
# Legend:
# Assay in all cases: growth of human tumour cells (NCI), 48 h
# 786-0 renal = system: 786-0 renal
# A498 renal = system: A498 renal
# A549 NSCLC = system: A549 NSCLC
# ACHN renal = system: ACHN renal
# BT-549 breast = system: BT-549 breast
# CAKI-1 renal = system: CAKI-1 renal
# CCRF-CEM leukemia = system: CCRF-CEM leukemia
# COLO 205 colon = system: COLO 205 colon
# DU-145 prostate = system: DU-145 prostate
# EKVX NSCLC = system: EKVX NSCLC
# HCT-116 colon = system: HCT-116 colon
# HCT-15 colon = system: HCT-15 colon
# HOP-62 NSCLC = system: HOP-62 NSCLC
# HT29 colon = system: HT29 colon
# K-562 leukemia = system: K-562 leukemia
# KM12 colon = system: KM12 colon
# M14 melanoma = system: M14 melanoma
# MALME-3M melanoma = system: MALME-3M melanoma
# MCF7 breast = system: MCF7 breast
# MDA-MB-231 breast = system: MDA-MB-231 breast
# MDA-MB-435 = system: MDA-MB-435
# MDA-N = system: MDA-N
# MOLT-4 leukemia = system: MOLT-4 leukemia
# NCI-H226 lung = system: NCI-H226 lung
# NCI-H23 lung = system: NCI-H23 lung
# NCI-H460 lung = system: NCI-H460 lung
# NCI/ADR-RES ovarian = system: NCI/ADR-RES ovarian
# OVCAR-3 ovarian = system: OVCAR-3 ovarian
# OVCAR-4 ovarian = system: OVCAR-4 ovarian
# OVCAR-5 ovarian = system: OVCAR-5 ovarian
# OVCAR-8 ovarian = system: OVCAR-8 ovarian
# PC-3 prostate = system: PC-3 prostate
# RPMI-8226 leukemia = system: RPMI-8226 leukemia
# SF-268 CNS = system: SF-268 CNS
# SF-295 CNS = system: SF-295 CNS
# SF-539 CNS = system: SF-539 CNS
# SK-MEL-2 melanoma = system: SK-MEL-2 melanoma
# SK-MEL-28 melanoma = system: SK-MEL-28 melanoma
# SK-OV-3 ovarian = system: SK-OV-3 ovarian
# SN12C renal = system: SN12C renal
# SNB-19 CNS = system: SNB-19 CNS
# SNB-75 CNS = system: SNB-75 CNS
# SW-620 colon = system: SW-620 colon
# T-47D breast = system: T-47D breast
# U251 CNS = system: U251 CNS
# UACC-257 melanoma = system: UACC-257 melanoma
# UACC-62 melanoma = system: UACC-62 melanoma
# UO-31 renal = system: UO-31 renal
# HCC-2998 colon = system: HCC-2998 colon
# HL-60(TB) leukemia = system: HL-60(TB) leukemia
# HOP-92 NSCLC = system: HOP-92 NSCLC
# HS 578T breast = system: HS 578T breast
# IGROV1 ovarian = system: IGROV1 ovarian
# LOX IMVI melanoma = system: LOX IMVI melanoma
# NCI-H522 lung = system: NCI-H522 lung
# RXF 393 renal = system: RXF 393 renal
# SK-MEL-5 melanoma = system: SK-MEL-5 melanoma
# SR leukemia = system: SR leukemia
# TK-10 renal = system: TK-10 renal
compound,measurement,setting,value
COc1ccccc1N/C(SCc1ccccc1)=C(/C(Cl)=C(Cl)Cl)[N+](=O)[O-],TGI,786-0 renal,97.8 µM
same,TGI,A498 renal,> 100 µM
same,TGI,A549 NSCLC,> 100 µM
same,TGI,ACHN renal,> 100 µM
same,TGI,BT-549 breast,32.9 µM
same,TGI,CAKI-1 renal,74.9 µM
same,TGI,CCRF-CEM leukemia,> 100 µM
same,TGI,COLO 205 colon,33.7 µM
same,TGI,DU-145 prostate,> 100 µM
same,TGI,EKVX NSCLC,> 100 µM
same,TGI,HCT-116 colon,> 100 µM
same,TGI,HCT-15 colon,49.8 µM
same,TGI,HOP-62 NSCLC,> 100 µM
same,TGI,HT29 colon,42.4 µM
same,TGI,K-562 leukemia,57.9 µM
same,TGI,KM12 colon,> 100 µM
same,TGI,M14 melanoma,> 100 µM
same,TGI,MALME-3M melanoma,38.7 µM
same,TGI,MCF7 breast,> 100 µM
same,TGI,MDA-MB-231 breast,48.4 µM
same,TGI,MDA-MB-435,42.5 µM
same,TGI,MDA-N,> 100 µM
same,TGI,MOLT-4 leukemia,> 100 µM
same,TGI,NCI-H226 lung,> 100 µM
same,TGI,NCI-H23 lung,31.7 µM
same,TGI,NCI-H460 lung,> 100 µM
same,TGI,NCI/ADR-RES ovarian,78.8 µM
same,TGI,OVCAR-3 ovarian,40.7 µM
same,TGI,OVCAR-4 ovarian,47.7 µM
same,TGI,OVCAR-5 ovarian,> 100 µM
same,TGI,OVCAR-8 ovarian,27.4 µM
same,TGI,PC-3 prostate,> 100 µM
same,TGI,RPMI-8226 leukemia,88.2 µM
same,TGI,SF-268 CNS,39 µM
same,TGI,SF-295 CNS,59.6 µM
same,TGI,SF-539 CNS,31.1 µM
same,TGI,SK-MEL-2 melanoma,> 100 µM
same,TGI,SK-MEL-28 melanoma,28.5 µM
same,TGI,SK-OV-3 ovarian,> 100 µM
same,TGI,SN12C renal,47.3 µM
same,TGI,SNB-19 CNS,> 100 µM
same,TGI,SNB-75 CNS,84.2 µM
same,TGI,SW-620 colon,31.7 µM
same,TGI,T-47D breast,65.6 µM
same,TGI,U251 CNS,47.3 µM
same,TGI,UACC-257 melanoma,> 100 µM
same,TGI,UACC-62 melanoma,> 100 µM
same,TGI,UO-31 renal,34.6 µM
O=[N+]([O-])c1ccc(-c2nn3c(C45CC6CC(CC(C6)C4)C5)nnc3s2)c(Cl)c1,TGI,786-0 renal,> 100 µM
same,TGI,A498 renal,> 100 µM
same,TGI,A549 NSCLC,> 100 µM
same,TGI,ACHN renal,> 100 µM
same,TGI,CAKI-1 renal,> 100 µM
same,TGI,CCRF-CEM leukemia,> 100 µM
same,TGI,COLO 205 colon,> 100 µM
same,TGI,DU-145 prostate,> 100 µM
same,TGI,EKVX NSCLC,> 100 µM
same,TGI,HCC-2998 colon,> 100 µM
same,TGI,HCT-116 colon,> 100 µM
same,TGI,HCT-15 colon,> 100 µM
same,TGI,HL-60(TB) leukemia,> 100 µM
same,TGI,HOP-62 NSCLC,> 100 µM
same,TGI,HOP-92 NSCLC,> 100 µM
same,TGI,HS 578T breast,> 100 µM
same,TGI,HT29 colon,> 100 µM
same,TGI,IGROV1 ovarian,> 100 µM
same,TGI,K-562 leukemia,> 100 µM
same,TGI,KM12 colon,> 100 µM
same,TGI,LOX IMVI melanoma,> 100 µM
same,TGI,M14 melanoma,> 100 µM
same,TGI,MALME-3M melanoma,> 100 µM
same,TGI,MDA-MB-231 breast,> 100 µM
same,TGI,MDA-MB-435,> 100 µM
same,TGI,MDA-N,> 100 µM
same,TGI,MOLT-4 leukemia,> 100 µM
same,TGI,NCI-H226 lung,> 100 µM
same,TGI,NCI-H23 lung,> 100 µM
same,TGI,NCI-H460 lung,> 100 µM
same,TGI,NCI-H522 lung,> 100 µM
same,TGI,NCI/ADR-RES ovarian,> 100 µM
same,TGI,OVCAR-3 ovarian,> 100 µM
same,TGI,OVCAR-4 ovarian,> 100 µM
same,TGI,OVCAR-5 ovarian,> 100 µM
same,TGI,OVCAR-8 ovarian,> 100 µM
same,TGI,PC-3 prostate,> 100 µM
same,TGI,RPMI-8226 leukemia,> 100 µM
same,TGI,RXF 393 renal,> 100 µM
same,TGI,SF-268 CNS,> 100 µM
same,TGI,SF-295 CNS,> 100 µM
same,TGI,SF-539 CNS,> 100 µM
same,TGI,SK-MEL-2 melanoma,> 100 µM
same,TGI,SK-MEL-28 melanoma,> 100 µM
same,TGI,SK-MEL-5 melanoma,> 100 µM
same,TGI,SK-OV-3 ovarian,> 100 µM
same,TGI,SN12C renal,> 100 µM
same,TGI,SNB-19 CNS,> 100 µM
same,TGI,SNB-75 CNS,> 100 µM
same,TGI,SR leukemia,> 100 µM
same,TGI,SW-620 colon,> 100 µM
same,TGI,T-47D breast,> 100 µM
same,TGI,TK-10 renal,> 100 µM
same,TGI,U251 CNS,> 100 µM
same,TGI,UACC-62 melanoma,> 100 µM
same,TGI,UO-31 renal,> 100 µM
